From US9975900B2, “Substituted imidazo[1,2-α]pyrazines for treating spinal muscular atrophy” (Hoffmann-La Roche Inc., priority 2014, dated 2018) come the findings set out here.

Counter-ions that a name gives are not always drawn.

Assay [1] concerns SMN protein in SMA patient fibroblast cells (GM03813). Put plainly: SMN protein assay (HTRF) in cultured cells. In kind it is cell-based. The settings on record: Homo sapiens, SMA Type 1 patient fibroblasts, 48 hours; for EC (1.5-fold): 7-point concentration curve, concentration giving 1.5 times SMN protein vs vehicle, read-out: EC1.5x SMN protein (EC1.5x concentration for SMN protein expression); for maximal fold induction: fold increase relative to vehicle control, read-out: Max. fold increase of SMN protein. As for the experimental part: The SMN HTRF (homogeneous time resolved fluorescence) assay is used to quantify the level of SMN protein in SMA patient fibroblast cells treated with test compounds. Materials used and respective sources are listed below in Table 4.
Cells are thawed and cultured in DMEM-10% FBS for 72 hours. Cells are trypsinized, counted and re-suspended to a concentration of 25,000 cells/mL in DMEM-10% FBS. The cell suspensions are plated at 5,000 cells per well in a 96 well microtiter plate and incubated for 3 to 5 hours. Test compounds are serially diluted 3.16-fold in 100% DMSO to generate a 7-point concentration curve. 1 μL of test compound solution is transferred to cell-containing wells and cells are incubated for 48 hours in a cell culture incubator (37° C., 5% CO2, 100% relative humidity). Triplicate samples are set up for each test compound concentration. After 48 hours, the supernatant is removed from the wells and 25 μL of the RIPA lysis buffer, containing protease inhibitors, is added to the wells and incubated with shaking at room temperature for 1 hour. 25 μL of the diluent is added and then 35 μL of the resulting lysate is transferred to a 384-well plate, where each well contains 5 μL of the antibody solution (1:100 dilution of anti-SMN d2 and anti-SMN cryptate in SMN reconstitution buffer). The plate is centrifuged for 1 minute to bring the solution to the bottom of the wells, then incubated overnight at room temperature. Fluorescence for each well of the plate at 665 nm and 620 nm is measured on an EnVision multilabel plate reader (Perkin-Elmer).
The normalized fluorescence signal is calculated for each sample, Blank and vehicle control well by dividing the signal at 665 nm by the signal at 620 nm. Normalizing the signal accounts for possible fluorescence quenching due to the matrix effect of the lysate. The ΔF value (a measurement of SMN protein abundance as a percent value) for each sample well is calculated by subtracting the normalized average fluorescence for the Blank control wells from the normalized fluorescence for each sample well, then dividing this difference by the normalized average fluorescence for the Blank control wells and multiplying the resulting value by 100. The ΔF value for each sample well represents the SMN protein abundance from test compound-treated samples. The ΔF value for each sample well is divided by the ΔF value for the vehicle control wells to calculate the fold increase in SMN protein abundance relative to the vehicle control. Table 5 provides EC1.5× concentrations for SMN protein expression that was obtained from the 7-point concentration data generated according to the above procedure for particular compounds of the present invention.
Table 6 provides the maximum fold increase of SMN protein that was obtained from the 7-point concentration data generated according to the above procedure for particular compounds of the present invention

The test system of assay [2] is full length SMN2 minigene mRNA (HEK293H cells stably transfected with the SMN2-A minigene construct). Put plainly: RT-qPCR assay for SMN2 minigene pre-mRNA splicing in cultured cells. In kind it is cell-based. The note with it: Homo sapiens, HEK293-H, 24 hours, 7-point concentration curve, concentration giving 1.5-fold FL SMN2mini mRNA vs vehicle, read-out: EC1.5x minigene (EC1.5x concentration for production of full length SMN2 minigene mRNA). The procedure:
The reverse transcription-quantitative PCR-based (RT-qPCR) assay is used to quantify the level of the full length SMN2 minigene (referred to herein by the term “FL SMN2mini”) mRNA containing SMN2 exon 7 in a HEK293H cell line stably transfected with said minigene and treated with a test compound. Materials used and respective sources are listed below in Table 1.
The SMN2-A minigene construct was prepared as described in International Patent Application WO2009/151546A1 page 145 paragraph [00400] to page 147 paragraph [00412] (incl. FIG. 1 and FIG. 3 therein).
HEK293H cells stably transfected with the SMN2-A minigene construct (10,000 cells/well) are seeded in 200 μL of cell culture medium (DMEM plus 10% FBS, with 200 μg/mL hygromycin) in 96-well flat-bottom plates and the plate is immediately swirled to ensure proper dispersal of cells and the formation of an even monolayer of cells. Cells are allowed to attach for 6 hours. Test compounds are serially diluted 3.16-fold in 100% DMSO to generate a 7-point concentration curve. A solution of test compound (1 μL, 200× in DMSO) is added to each cell-containing well and the plate is incubated for 24 hours in a cell culture incubator (37° C., 5% CO2, 100% relative humidity). 2 replicates are prepared for each test compound concentration. The cells are then lysed in the Cells-To-Ct lysis buffer and the lysate is stored at −80° C.
Full length SMN2-A minigene and GAPDH mRNA are quantified using the primers and probes referenced in Table 2. Primer SMN Forward A (SEQ ID NO.1) hybridizes to a nucleotide sequence in exon 7 (nucleotide 22 to nucleotide 40), primer SMN Reverse A (SEQ ID NO.2) hybridizes to a nucleotide sequence in the coding sequence of Firefly luciferase, SMN Probe A (SEQ ID NO.3) hybridizes to a nucleotide sequence in exon 7 (nucleotide 50 to nucleotide 54) and exon 8 (nucleotide 1 to nucleotide 21). The combination of these three oligonucleotides detects only SMN1 or SMN2 minigenes (RT-qPCR) and will not detect endogenous SMN1 or SMN2 genes.
The SMN forward and reverse primers are used at final concentrations of 0.4 μM. The SMN probe is used at a final concentration of 0.15 μM. The GAPDH primers are used at final concentrations of 0.2 μM and the probe at 0.15 μM.
The SMN2-minigene GAPDH mix (15 μL total volume) is prepared by combining 7.5 of 2×RT-PCR buffer, 0.4 μL of 25×RT-PCR enzyme mix, 0.75 μL of 20× GAPDH primer-probe mix, […] of water, 2 μL of 10-fold diluted cell lysate, 0.06 μL of 100 μM SMN forward primer, 0.06 μL of 100 μM SMN reverse primer, and 0.225 μL of 100 μM SMN probe.
PCR is carried out at the following temperatures for the indicated time: Step 1: 48° C. (15 min); Step 2: 95° C. (10 min); Step 3: 95° C. (15 sec); Step 4: 60° C. (1 min); then repeat Steps 3 and 4 for a total of 40 cycles.
Each reaction mixture contains both SMN2-A minigene and GAPDH primers/probe sets (multiplex design), allowing simultaneous measurement of the levels of two transcripts.
The increase in the abundance of the FL SMN2mini mRNA relative to that in cells treated with vehicle control is determined from real-time PCR data using a modified ΔΔCt method (as described in Livak and Schmittgen, Methods, 2001, 25:402-8). The amplification efficiency E is calculated from the slope of the amplification curve for FL SMN2mini and GAPDH individually. The abundance of FL SMN2mini and GAPDH mRNA are then calculated as (1+E)^−Ct, where Ct is the threshold value for each amplicon. The abundance of FL SMN2mini mRNA is normalized to GAPDH mRNA abundance. The normalized FL SMN2mini mRNA abundance from test compound-treated samples is then divided by normalized FL SMN2mini mRNA abundance from vehicle-treated cells to determine the level of FL SMN2mini mRNA relative to vehicle control. […]

As for `CCOc1cc(N2CCN3CCC[C@H]3C2)ccc1C(=O)Nc1cn2cc(C)nc2c(C)n1` [Example 12, 4-[(8aS)-3,4,6,7,8,8a-hexahydro-1H-pyrrolo[1,2-a]pyrazin-2-yl]-N-(2,8-dimethylimidazo[1,2-a]pyrazin-6-yl)-2-ethoxybenzamide], in assay [1], the EC (1.5-fold) is 1.73 µM and the maximal fold induction was 1.56. In addition, the EC (1.5-fold) in assay [2] was 0.145 µM.

Take `Cc1cn2cc(NC(=O)c3ccc(N4CCN5CCC[C@H]5C4)cc3F)nc(C)c2n1` [Example 13, 4-[(8aS)-3,4,6,7,8,8a-hexahydro-1H-pyrrolo[1,2-a]pyrazin-2-yl]-N-(2,8-dimethylimidazo[1,2-a]pyrazin-6-yl)-2-fluorobenzamide]: in assay [1], the EC (1.5-fold) is 0.109 µM and the maximal fold induction was 1.66. Also, the EC (1.5-fold) in assay [2] came to 0.0262 µM.

In the case of `Cc1cn2cc(NC(=O)c3c(F)cc(N4CCN[C@H](C)C4)cc3F)nc(C)c2n1` [Example 14, N-(2,8-dimethylimidazo[1,2-a]pyrazin-6-yl)-2,6-difluoro-4-[(3R)-3-methylpiperazin-1-yl]benzamide], in assay [1], the EC (1.5-fold) came out at 0.124 µM and the maximal fold induction stood at 1.61. Besides, the EC (1.5-fold) in assay [2] came to 0.0097 µM.

As to `CCOc1cc(N2CCN[C@H](C)C2)ccc1C(=O)Nc1cn2cc(C)nc2c(C)n1` [Example 15, N-(2,8-dimethylimidazo[1,2-a]pyrazin-6-yl)-2-ethoxy-4-[(3R)-3-methylpiperazin-1-yl]benzamide], the figures for the EC (1.5-fold) in assay [1] and in assay [2] were 0.303 µM and 0.038 µM, respectively. In addition, the maximal fold induction in assay [1] amounted to 1.72.

In the case of `CCc1nc(NC(=O)c2ccc(N3CCN4CCC[C@H]4C3)cc2F)cn2cc(C)nc12` [Example 16, 4-[(8aS)-3,4,6,7,8,8a-hexahydro-1H-pyrrolo[1,2-a]pyrazin-2-yl]-N-(8-ethyl-2-methylimidazo[1,2-a]pyrazin-6-yl)-2-fluorobenzamide], the EC (1.5-fold) in assay [1] is 0.237 µM; in assay [2], 0.0314 µM. Moreover, the maximal fold induction in assay [1] was 1.72.

Regarding `Cc1cn2cc(NC(=O)c3ccc(N4CCN5CCC[C@H]5C4)cc3F)nc(C3CC3)c2n1` [Example 17, 4-[(8aS)-3,4,6,7,8,8a-hexahydro-1H-pyrrolo[1,2-a]pyrazin-2-yl]-N-(8-cyclopropyl-2-methylimidazo[1,2-a]pyrazin-6-yl)-2-fluorobenzamide], in assay [1], the EC (1.5-fold) amounted to 1.7 µM and the maximal fold induction turned out to be 1.51. In assay [2], the EC (1.5-fold) came out at 0.0338 µM.

For the compound `Cc1cn2cc(NC(=O)c3c(F)cc(N4CCN5CCC[C@H]5C4)cc3F)nc(C)c2n1` [Example 18, 4-[(8aS)-3,4,6,7,8,8a-hexahydro-1H-pyrrolo[1,2-a]pyrazin-2-yl]-N-(2,8-dimethylimidazo[1,2-a]pyrazin-6-yl)-2,6-difluorobenzamide], in assay [1], the EC (1.5-fold) worked out at 0.117 µM and the maximal fold induction turned out to be 1.75. Moreover, the EC (1.5-fold) in assay [2] was 0.0234 µM.

Take `Cc1cn2cc(NC(=O)c3ccc(N4C[C@@H](C)N[C@@H](C)C4)cc3F)nc(C)c2n1` [Example 19, N-(2,8-dimethylimidazo[1,2-a]pyrazin-6-yl)-4-[(3R,5S)-3,5-dimethylpiperazin-1-yl]-2-fluorobenzamide]: the values for the EC (1.5-fold) in assay [1] and in assay [2] were 0.0274 µM and 0.003 µM, respectively. Further, in assay [1], the maximal fold induction turned out to be 1.71.

In the case of `Cc1cn2cc(NC(=O)c3ccc(N4CC[C@H](N5CCCC5)C4)cc3F)nc(C)c2n1` [Example 20, N-(2,8-dimethylimidazo[1,2-a]pyrazin-6-yl)-2-fluoro-4-[(3S)-3-pyrrolidin-1-ylpyrrolidin-1-yl]benzamide], the EC (1.5-fold) in assay [1] came to 0.101 µM; in assay [2], 0.023 µM. In addition, in assay [1], the maximal fold induction is 1.7.

As to `CCc1nc(NC(=O)c2ccc(N3CCN[C@H](C)C3)cc2F)cn2cc(C)nc12` [Example 21, N-(8-ethyl-2-methylimidazo[1,2-a]pyrazin-6-yl)-2-fluoro-4-[(3R)-3-methylpiperazin-1-yl]benzamide hydrochloride], the values for the EC (1.5-fold) in assay [1] and in assay [2] were 0.162 µM and 0.0204 µM, respectively. The maximal fold induction in assay [1] turned out to be 1.8.

With `Cc1cn2cc(NC(=O)c3ccc(N4CCN5CCC[C@@H]5C4)cc3F)nc(C3CC3)c2n1` [Example 22, 4-[(8aR)-3,4,6,7,8,8a-hexahydro-1H-pyrrolo[1,2-a]pyrazin-2-yl]-N-(8-cyclopropyl-2-methylimidazo[1,2-a]pyrazin-6-yl)-2-fluorobenzamide], in assay [1], the EC (1.5-fold) was 0.66 µM and the maximal fold induction is 1.5. The EC (1.5-fold) in assay [2] came out at 0.0952 µM.

With `Cc1cn2cc(NC(=O)c3ccc(N4CCN[C@H](C)C4)cc3F)nc(C3CC3)c2n1` [Example 23, N-(8-cyclopropyl-2-methylimidazo[1,2-a]pyrazin-6-yl)-2-fluoro-4-[(3R)-3-methylpiperazin-1-yl]benzamide hydrochloride], in assay [1], the EC (1.5-fold) came out at 0.0622 µM and the maximal fold induction was determined as 1.72. In addition, the EC (1.5-fold) in assay [2] was 0.0268 µM.
